Experimental data reported in ChEMBL document CHEMBL1121773, “Interaction of aromatic dyes with the coenzyme A binding site of choline acetyltransferase” (J Med Chem, 1981).

Test system: Choline O-acetyltransferase (squid)
Experiment: Compound was tested for inhibition of choline acetyltransferase isolated from squid head ganglia; No inhibition at limit of solubility (4.4*10e-3 M)

- Ki: No inhibition at limit of solubility
SMILES: O=S(=O)(O)c1ccc2ccccc2c1Nc1ccccc1
